Laboratory results published in US12558428B2, “Heterobifunctional compounds and their use in treating disease” (Halda Therapeutics OpCo, Inc., priority 2024, dated 2026).
Read-outs that look alike come from different tables or passages of the source.

Columns and labels:
[1] = test system: T-Rex 293 cells having increased expression of estrogen receptor alpha protein; assay: Cellular growth inhibition assay, T-Rex 293 cells, (+) doxycycline; type: cell-based; details: T-REx-293, 72 h, 72 hours
Description: (§1) Exemplary compounds were tested for the ability to inhibit the proliferation of the following types of cells: (i) a T-Rex 293 cell line having increased expression of estrogen receptor alpha protein from exposure to doxycycline and (ii) a T-Rex 293 cell line lacking increased expression of estrogen receptor alpha protein.
(§2) The following types of cells were prepared for this experiment: (i) a T-Rex 293 cell line having increased expression of estrogen receptor alpha protein from exposure to doxycycline and (ii) a T-Rex 293 cell line lacking increased expression of estrogen receptor alpha protein. The ability of the test compounds to inhibit proliferation of the foregoing cell types was evaluated according to the procedures set forth below.
(§3) The doxycycline-inducible estrogen receptor alpha protein expressing cell line was established using the following protocol: T-Rex 293 cells were purchased from Invitrogen (Cat #R71007) and transfected using Lipofectamine 2000 with the wild-type estrogen receptor alpha protein sequence cloned into the pcDNA4/TO vector. Transfected cells were selected using 400 μg/mL Zeocin (Invitrogen Cat #R25001). Following selection, single clones were raised and maintained in Dulbecco's Modified Eagle Medium (DMEM) supplemented with 10% w/w Tetracycline-free fetal bovine serum (FBS) and 250 μg/mL Zeocin. Clones were analyzed for expression of estrogen receptor alpha protein in the presence and absence of 3 ng/mL doxycycline (Sigma Cat #D9891), and a single doxycycline-inducible clone (hereinafter “SC”) was selected for use in downstream assays.
(§4) The SC cells were seeded on poly-D-lysine coated, black clear-bottom 384-well plates at 2500/well, in 25 μL Phenol Red Free Dulbecco's Modified Eagle Medium (DMEM) supplemented with 10% w/w charcoal-dextran treated fetal bovine serum (FBS) and 1% w/w pen-strep, with or without 3 ng/mL doxycycline. Pen-Strep is a commercially available mixture of penicillin G and streptomycin, which is used in mammalian cell culture media to prevent bacterial contamination. Phenol Red Free Dulbecco's Modified Eagle Medium (DMEM) supplemented with 10% w/w charcoal-dextran treated fetal bovine serum (FBS) and 1% w/w pen-strep, with or without 3 ng/mL doxycycline is herein referred to as Treatment Medium. Following seeding of cells in the plates, the plates were spun at 300×g for 30 seconds, then equilibrated to room temperature for 30 minutes, and then deposited in a humidified tissue culture incubator maintained at 37° C. with 5% CO2.
(§5) At 24 hours after seeding of the cells, dilutions of test compound were prepared in DMSO and dissolved in Treatment Medium, to achieve a final DMSO concentration of 0.5% w/w, thereby providing the Test Compound Solution. A 25 μL aliquot of the Test Compound Solution was added to cells in the well plates. An equal volume of a solution containing DMSO and Treatment Medium was used as a negative control. Following treatment of cells with Test Compound Solution or said equal volume of a solution containing DMSO and Treatment Medium, the plates were spun at 300×g for 30 seconds, and then left in an incubator for 72 hours.
(§6) At the end of the treatment duration, cell viability was quantified with CellTiter-Glo 2.0 reagent (Promega Cat #G9243). For this purpose, plates were equilibrated to room temperature for 30 minutes, and then 25 μL of CellTiter-Glo 2.0 reagent was added to cells in the plate wells. Plates were then agitated on a shaker for two minutes at 500 rpm and subsequently incubated at room temperature for 10 minutes. Following incubation, the plates were spun at 3000×g for 30 seconds, then sealed with an optical adhesive cover, and luminescence readings were measured with an EnVision Plate Reader (Perkin Elmer).
(§7) Data was normalized using zero luminescence for baseline. […]

[2] = test system: T-Rex 293 cells lacking increased expression of estrogen receptor alpha protein; assay: Cellular growth inhibition assay, T-Rex 293 cells, (−) doxycycline; type: cell-based; details: T-REx-293, 72 h, 72 hours
Description: as §1, §2, §3, §4, §5, §6, §7

[3] = Table 7-A, T-Rex 293 cells with doxycycline (increased ERα expression), CellTiter-Glo, read-out: (+) Dox GI50
[4] = Table 7-A, T-Rex 293 cells without doxycycline (lacking increased ERα expression), CellTiter-Glo, read-out: (−) Dox GI50

Compound | GI50 [1, 3] [nM] | GI50 [2, 4] [nM] | GI50 ([1]; T-Rex 293 cells with doxycycline-induced ERα expression, CellTiter-Glo 2.0, read-out: (+) Dox TRex ERa (GI50)) [nM] | GI50 ([2]; T-Rex 293 cells without doxycycline, CellTiter-Glo 2.0, read-out: (−) Dox TRex ERa (GI50)) [nM]
COc1cc(N2CCN(CC3(O)CCN(c4ccc(C5=N[C@@H](C)c6nnc(C)n6-c6sc(C)c(C)c65)cc4)CC3)CC2)ccc1[C@@H]1c2ccc(O)cc2CC[C@@H]1c1ccccc1 (single isomer, unassigned) [III-321] | < 50 | 500 to 2500 | – | –
COc1cc(N2CCN(CC3(O)CCN(c4ccc(C5=N[C@@H](C)c6nnc(C)n6-c6sc(C)c(C)c65)cc4)CC3)CC2)c(F)cc1[C@H]1c2ccc(O)cc2CC[C@H]1c1ccc(F)cc1 [III-319] | < 50 | 50 to 500 | – | –
COc1cc(N2CCN(CC3CCN(c4ccc(C5=N[C@@H](C)c6nnc(C)n6-c6sc(C)c(C)c65)cc4)CC3)CC2)c(F)cc1[C@H]1c2ccc(O)cc2CC[C@H]1c1ccc(F)cc1 [III-314] | 50 to 500 | 500 to 2500 | – | –
COc1cc(N2CCN(CC3(O)CCN(c4ccc(C5=N[C@@H](C)c6nnc(C)n6-c6sc(C)c(C)c65)cc4)CC3)CC2)ccc1[C@@H]1c2ccc(O)cc2CC[C@@H]1c1ccc(F)cc1F (single isomer, unassigned) [III-334] | < 50 | 500 to 2500 | – | –
COc1cc(N2CCN(CC3(O)CCN(c4ccc(C5=N[C@@H](C)c6nnc(C)n6-c6sc(C)c(C)c65)c(F)c4)CC3)CC2)ccc1[C@H]1c2ccc(O)cc2CC[C@H]1c1ccc(F)cc1 (single isomer, unassigned) [III-327] | 50 to 500 | 50 to 500 | – | –
Cc1sc2c(c1C)C(c1ccc(N3CCC(O)(CN4CCC(c5cc(F)c([C@@H]6c7ccc(O)cc7CC[C@@H]6c6ccc(F)cc6)c(F)c5)CC4)CC3)cc1F)=N[C@@H](C)c1nnc(C)n1-2 [III-338, 4-((4-(3,5-difluoro-4-((1S,2S)-2-(4-fluorophenyl)-6-hydroxy-1,2,3,4-tetrahydronaphthalen-1-yl)phenyl)piperidin-1-yl)methyl)-1-(3-fluoro-4-((6S)-2,3,6,9-tetramethyl-6H-thieno[3,2-f][1,2,4]triazolo[4,3-a][1,4]diazepin-4-yl)phenyl)piperidin-4-ol] | < 50 | 500 to 2500 | – | –
COc1cc(N2CCN(CC3CCN(c4ccc(C5=N[C@@H](C)c6nnc(C)n6-c6sc(C)c(C)c65)cc4)CC3)CC2)ccc1[C@H]1c2ccc(O)cc2CC[C@H]1c1ccc(C)cc1 [III-329] | 50 to 500 | 50 to 500 | – | –
COc1cc(N2CCN(CC3(O)CCN(c4ccc(C5=N[C@@H](C)c6nnc(C)n6-c6sc(C)c(C)c65)cc4)CC3)CC2)ccc1[C@H]1c2ccc(O)cc2CC[C@H]1c1ccc(F)cc1F (single isomer, unassigned) [III-333] | 50 to 500 | 500 to 2500 | – | –
COc1ccc([C@H]2CCc3cc(O)ccc3[C@H]2c2ccc(N3CCN(CC4(O)CCN(c5ccc(C6=N[C@@H](C)c7nnc(C)n7-c7sc(C)c(C)c76)cc5)CC4)CC3)cc2Cl)cc1 (single isomer, unassigned) [III-336] | < 50 | 500 to 2500 | – | –
COc1cc(N2CCN(CC3CCN(c4ccc(C5=N[C@@H](C)c6nnc(C)n6-c6sc(C)c(C)c65)cc4)CC3)CC2)ccc1[C@@H]1c2ccc(O)cc2CC[C@@H]1c1ccc(C)cc1 [III-330] | < 50 | 50 to 500 | – | –
Cc1sc2c(c1C)C(c1ccc(N3CCC(CN4CCN(c5ccc([C@H]6c7ccc(O)cc7CC[C@H]6c6ccccc6F)c(F)c5)CC4)CC3)cc1)=N[C@@H](C)c1nnc(C)n1-2 [III-324] | 50 to 500 | 50 to 500 | – | –
Cc1sc2c(c1C)C(c1ccc(N3CCC(CN4CCN(c5ccc([C@@H]6c7ccc(O)cc7CC[C@@H]6c6ccccc6F)c(F)c5)CC4)CC3)cc1)=N[C@@H](C)c1nnc(C)n1-2 [III-323] | < 50 | 500 to 2500 | – | –
COc1cc(N2CCN(CC3CCN(c4ccc(C5=N[C@@H](C)c6nnc(C)n6-c6sc(C)c(C)c65)cc4)CC3)CC2)ccc1[C@@H]1c2ccc(O)cc2CC[C@@H]1c1ccc(F)cc1 [III-316] | < 50 | 500 to 2500 | – | –
COc1cc(N2CCN(CC3CCN(c4ccc(C5=N[C@@H](C)c6nnc(C)n6-c6sc(C)c(C)c65)c(F)c4)CC3)CC2)ccc1[C@@H]1c2ccc(O)cc2CC[C@@H]1c1ccc(C)cc1 [III-332] | < 50 | 50 to 500 | – | –
Cc1sc2c(c1C)C(c1ccc(N3CC(N4CCN(CCOc5ccc([C@@H]6c7ccc(O)cc7CC[C@@H]6c6ccccc6)cc5)CC4)C3)cc1)=NC(Cc1ncco1)c1nnc(C)n1-2 (stereo partly shown) [III-41] | < 50 | 50 to 500 | – | –
Cn1cc(-c2cc(C(C)(C)O)ccc2Oc2ccc(N3CCN(CC4CCN(c5ccc([C@@H]6c7ccc(O)cc7CC[C@@H]6c6ccccc6)cc5)CC4)CC3)cc2)c2cc[nH]c2c1=O [I-18, 4-(2-(4-(4-((1-(4-((1R,2S)-6-hydroxy-2-phenyl-1,2,3,4-tetrahydronaphthalen-1-yl)phenyl)piperidin-4-yl)methyl)piperazin-1-yl)phenoxy)-5-(2-hydroxypropan-2-yl)phenyl)-6-methyl-1,6-dihydro-7H-pyrrolo[2,3-c]pyridin-7-one] | – | – | < 50 | 50 to 500
COc1cc(N2CCN(CC3(O)CCN(c4ccc(C5=N[C@@H](C)c6nnc(C)n6-c6sc(C)c(C)c65)cc4)CC3)CC2)c(F)cc1[C@@H]1c2ccc(O)cc2CC[C@@H]1c1ccc(F)cc1 [III-320] | < 50 | 500 to 2500 | – | –
COc1ccc([C@@H]2CCc3cc(O)ccc3[C@@H]2c2ccc(N3CCN(CC4(O)CCN(c5ccc(C6=N[C@@H](C)c7nnc(C)n7-c7sc(C)c(C)c76)cc5)CC4)CC3)cc2Cl)cc1 (single isomer, unassigned) [III-335] | 50 to 500 | 500 to 2500 | – | –
COc1cc(N2CCN(CC3(O)CCN(c4ccc(C5=N[C@@H](C)c6nnc(C)n6-c6sc(C)c(C)c65)cc4)CC3)CC2)ccc1[C@H]1c2ccc(O)cc2CC[C@H]1c1ccccc1 (single isomer, unassigned) [III-322] | 50 to 500 | 50 to 500 | – | –
Cc1sc2c(c1C)C(c1ccc(N3CCC(O)(CN4CCC(c5cc(F)c([C@H]6c7ccc(O)cc7CC[C@H]6c6ccc(F)cc6)c(F)c5)CC4)CC3)cc1F)=N[C@@H](C)c1nnc(C)n1-2 [III-337, 4-((4-(3,5-difluoro-4-((1R,2R)-2-(4-fluorophenyl)-6-hydroxy-1,2,3,4-tetrahydronaphthalen-1-yl)phenyl)piperidin-1-yl)methyl)-1-(3-fluoro-4-((6S)-2,3,6,9-tetramethyl-6H-thieno[3,2-f][1,2,4]triazolo[4,3-a][1,4]diazepin-4-yl)phenyl)piperidin-4-ol] | 50 to 500 | 500 to 2500 | – | –
COc1cc(N2CCN(CC3CCN(c4ccc(C5=N[C@@H](C)c6nnc(C)n6-c6sc(C)c(C)c65)cc4)CC3)CC2)ccc1[C@H]1c2ccc(O)cc2CC[C@H]1c1ccc(F)cc1 [III-315] | 500 to 2500 | 500 to 2500 | – | –
COc1cc(N2CCN(CC3(O)CCN(c4ccc(C5=N[C@@H](C)c6nnc(C)n6-c6sc(C)c(C)c65)c(F)c4)CC3)CC2)ccc1[C@@H]1c2ccc(O)cc2CC[C@@H]1c1ccc(F)cc1 [III-328, 1-(3-fluoro-4-((6S)-2,3,6,9-tetramethyl-6H-thieno[3,2-f][1,2,4]triazolo[4,3-a][1,4]diazepin-4-yl)phenyl)-4-((4-(4-((1S,2S)-2-(4-fluorophenyl)-6-hydroxy-1,2,3,4-tetrahydronaphthalen-1-yl)-3-methoxyphenyl)piperazin-1-yl)methyl)piperidin-4-ol] | < 50 | 500 to 2500 | – | –
Cc1sc2c(c1C)C(c1ccc(N3CCC(CN4CCN(c5ccc([C@@H]6c7ccc(O)cc7CC[C@@H]6c6cccc(F)c6)c(F)c5)CC4)CC3)cc1)=N[C@@H](C)c1nnc(C)n1-2 [III-325] | 50 to 500 | 500 to 2500 | – | –
